Assay results as given in patent US6261814A, “Carboxylic acid reductase, and methods of using same” (University of Iowa Research Foundation, priority 1998, dated 2001).

The compounds below were run against carboxylic acid reductase (aryl aldehyde oxidoreductase) (Nocardia iowensis, UniProt Q6RKB1) (assay: Substrate specificity of crude carboxylic acid reductase (100,000×g supernatant)). Settings: 5 mM substrate, 0.15 mM NADPH, 1 mM ATP, 50 mM Tris-HCl pH 7.5; percentage of the initial rate of benzoate reduction.
Assay type: biochemical, Nocardia sp. NRRL 5646
Parameters: Crude enzyme preparations consisting of 100,000×g supernatants were used in this study; endogenous in cells; host or cells: Nocardia sp; NRRL 5646, crude 100,000×g supernatant
Description: Enzyme assay. The standard aryl-aldehyde oxidoreductase assay solution contained 0.15 mM […], 1 mM ATP, and 5 mM sodium benzoate, 10 mM MgCl2 and 0.01 to 0.3 units of enzyme in 50 mM Tris-HCl buffer in a final volume of 0.7 ml. The reference cuvette contained all components except for benzoate. Enzyme reactions were initiated by adding enzyme, and they were monitored by recording the absorption decrease at 340 nm at 25° C. with a Shimadzu 160 spectrophotometer.
Crude enzyme preparations consisting of 100,000×g supernatants were used in this study. […] The relative rate of reduction for each carboxylic acid derivative is expressed as the percentage of the initial rate of benzoate reduction.
The range of oxidoreductase activities of crude, 100,000×g Nocardia extract with a variety of substrates was investigated. Various substituted 2-, 3- and 4-substituted benzoates were examined, including a range of ring-activating and ring-deactivating functional groups. Benzoates substituted with halogens, methyl, methoxy, hydroxy, acetyl, nitro, benzoyl, phenyl, and phenoxyl groups as well as aryl-ring systems containing two (naphthalene) and three (fluorene) rings, and heterocyclic aromatic acids including furoic, nicotinic and indole carboxylic acids were considered. In addition, one cinnamic acid derivative, phenyl-acetate, phenyl-malonate, phenyl-succinate and 2-phenylpropionic acid were studied.

carboxylic acid reductase (aryl aldehyde oxidoreductase), sequence (Q6RKB1 whole entry): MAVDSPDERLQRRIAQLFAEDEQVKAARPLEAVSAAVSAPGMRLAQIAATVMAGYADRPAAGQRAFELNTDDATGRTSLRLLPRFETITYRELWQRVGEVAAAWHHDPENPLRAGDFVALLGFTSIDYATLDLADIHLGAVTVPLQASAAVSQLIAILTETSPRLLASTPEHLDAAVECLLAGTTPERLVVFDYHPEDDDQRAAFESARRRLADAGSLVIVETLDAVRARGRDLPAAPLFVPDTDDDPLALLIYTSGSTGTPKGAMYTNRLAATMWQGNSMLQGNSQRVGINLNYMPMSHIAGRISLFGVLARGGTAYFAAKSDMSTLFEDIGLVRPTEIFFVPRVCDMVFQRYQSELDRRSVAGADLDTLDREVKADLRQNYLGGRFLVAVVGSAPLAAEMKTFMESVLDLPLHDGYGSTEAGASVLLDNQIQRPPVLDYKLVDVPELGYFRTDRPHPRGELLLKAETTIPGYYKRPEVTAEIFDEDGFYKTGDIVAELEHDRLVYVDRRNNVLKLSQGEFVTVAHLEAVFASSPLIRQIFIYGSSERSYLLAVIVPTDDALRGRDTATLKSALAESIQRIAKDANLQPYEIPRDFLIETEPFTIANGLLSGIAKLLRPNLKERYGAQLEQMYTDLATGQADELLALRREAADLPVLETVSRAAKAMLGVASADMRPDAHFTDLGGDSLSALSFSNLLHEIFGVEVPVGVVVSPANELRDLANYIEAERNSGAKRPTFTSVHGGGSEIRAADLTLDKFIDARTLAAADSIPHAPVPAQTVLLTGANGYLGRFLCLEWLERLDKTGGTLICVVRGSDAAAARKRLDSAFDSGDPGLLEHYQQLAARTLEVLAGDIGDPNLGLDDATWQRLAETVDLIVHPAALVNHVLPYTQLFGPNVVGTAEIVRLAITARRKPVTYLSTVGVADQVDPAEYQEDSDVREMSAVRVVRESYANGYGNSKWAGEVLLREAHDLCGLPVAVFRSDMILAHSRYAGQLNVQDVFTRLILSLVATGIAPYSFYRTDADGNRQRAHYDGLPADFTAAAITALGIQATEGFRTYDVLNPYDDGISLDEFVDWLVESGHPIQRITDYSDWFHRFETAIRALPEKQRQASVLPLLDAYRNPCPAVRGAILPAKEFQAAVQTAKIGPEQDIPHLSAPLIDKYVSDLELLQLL

SMILES	Relative Activity [percentage]
O=C(O)c1cccc2ccccc12 [1-naphthoic acid]	77
CC(=O)c1ccccc1C(=O)O [2-acetyl-benzoic acid]	4
CC(=O)Nc1ccccc1C(=O)O [2-acetylamino-benzoic acid]	0
COc1ccccc1C(=O)O [2-anisic acid]	3
O=C(O)c1ccccc1C(=O)c1ccccc1 [2-benzoyl-benzoic acid]	0
O=C(O)c1ccccc1Br [2-bromo-benzoic acid]	5
O=C(O)c1ccccc1Cl [2-chloro-benzoic acid]	3
O=C(O)c1ccccc1F [2-fluoro-benzoic acid]	57
O=C(O)c1ccco1 [2-furoic acid]	18
O=C(O)c1ccccc1O [2-hydroxyl-benzoic acid]	0
O=C(O)c1ccc2ccccc2c1 [2-naphthoic acid]	95
O=C(O)c1ccccc1[N+](=O)[O-] [2-nitro-benzoic acid]	0
CC(C(=O)O)c1ccccc1 (centres unmarked) [2-phenyl propionic acid]	16
O=C(O)c1ccccc1-c1ccccc1 [2-phenyl-benzoic acid]	16
Cc1ccccc1C(=O)O [2-toluic acid]	6
COc1cccc(C(=O)O)c1 [3-anisic acid]	87
O=C(O)c1cccc(C(=O)c2ccccc2)c1 [3-benzoyl-benzoic acid]	53
O=C(O)c1cccc(Br)c1 [3-bromo-benzoic acid]	105

SMILES	Relative Activity [percentage]
O=C(O)c1cccc(Cl)c1 [3-chloro-benzoic acid]	124
O=C(O)c1cccc(F)c1 [3-fluoro-benzoic acid]	78
O=C(O)c1ccoc1 [3-furoic acid]	22
O=C(O)c1cccc(O)c1 [3-hydroxyl-benzoic acid]	77
COc1cccc(C=CC(=O)O)c1 [3-methoxy-cinnamic acid]	8
O=C(O)c1cccc([N+](=O)[O-])c1 [3-nitro-benzoic acid]	0
Cc1cccc(C(=O)O)c1 [3-toluic acid]	4
CC(=O)c1ccc(C(=O)O)cc1 [4-acetyl-benzoic acid]	20
CC(=O)Nc1ccc(C(=O)O)cc1 [4-acetylamino-benzoic acid]	22
COc1ccc(C(=O)O)cc1 [4-anisic acid]	36
O=C(O)c1ccc(C(=O)c2ccccc2)cc1 [4-benzoyl-benzoic acid]	6
O=C(O)c1ccc(Br)cc1 [4-bromo-benzoic acid]	72
O=C(O)c1ccc(F)cc1 [4-fluoro-benzoic acid]	94
O=C(O)c1ccc(O)cc1 [4-hydroxyl-benzoic acid]	6
O=C(O)c1ccc([N+](=O)[O-])cc1 [4-nitro-benzoic acid]	0
O=C(O)c1ccc(Oc2ccccc2)cc1 [4-phenoxy-benzoic acid]	11
O=C(O)c1ccc(-c2ccccc2)cc1 [4-phenyl-benzoic acid]	21

Same assay, conditions: substrates of Table 2

SMILES	quality as substrate of the enzyme (in words)
O=C(O)c1ccc2ccccc2c1 [2-naphthoic acid]	best substrates
CC(C(=O)O)c1ccccc1 (centres unmarked) [2-phenyl propionic acid]	slower rates than benzoate
COc1cccc(C(=O)O)c1 [3-anisic acid]	best substrates
O=C(O)c1cccc(Br)c1 [3-bromo-benzoic acid]	best substrates
O=C(O)c1cccc(Cl)c1 [3-chloro-benzoic acid]	best substrates
O=C(O)c1ccc(F)cc1 [4-fluoro-benzoic acid]	best substrates
